The values that follow come from patent US20250230138A1, “COMPOUNDS HAVING A T-STRUCTURE FORMED BY AT LEAST FOUR CYCLES FOR USE IN THE TREATMENT OF CANCER AND OTHER INDICATIONS” (TheRas, Inc., priority 2022, published 2025).

Experiment [1] addresses Cys242 in human PIK3CA (157-299) (Homo sapiens (Human), UniProt P42336). As to the kind of experiment: Covalent modification assay using MALDI-TOF MS. The note with it: 4 h reaction time point. The format is biochemical. In a few lines: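 PIK3CA (157-299), 3.33 or 1 μM in 20 mM HEPES, 150 mM NaCl, 2 mM MgCl2, pH 7.3, was incubated with compound at room temperature in the dark for 15 min, 30 min, 2 h or 4 h. Linear MALDI-TOF read-out; % modification = adduct peak height over summed heights of all protein species.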

The test system of the next experiment is pAKT in BT474 cells. As to the kind of experiment: Cell-based pAKT HTRF assay in BT474 cells. The note with it: BT474 cells, 4 hr incubation, read-out: pAKT inhibition IC50 in BT474 cells. In a few lines:
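Cells are seeded on day 1 and dosed on day 2 with a 9-point curve (3 μM top, 3-fold). After 4 hr they are lysed and the lysate is mixed with d2- and Eu Cryptate-labelled antibodies. HTRF is read after 4–24 h at room temperature.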

The mark [2] stands for this setting: 1 μM protein target, 1:5 protein to compound ratio (compounds 853-1279).
[3] abbreviates: Homo sapiens, BT-474, Compounds 10-999.
[4] abbreviates: 3.33 μM protein target, 1:7.5 protein to compound ratio (compounds 1-852).

Each structure is given as a SMILES string. Like-named read-outs stand apart in the source and are kept apart here.

Sequence of Cys242 in human PIK3CA (157-299) (P42336 157-299): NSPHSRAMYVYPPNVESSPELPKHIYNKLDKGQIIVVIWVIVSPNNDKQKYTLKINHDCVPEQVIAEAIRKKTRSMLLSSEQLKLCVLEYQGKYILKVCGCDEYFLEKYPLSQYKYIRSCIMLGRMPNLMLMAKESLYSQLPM

For the compound `C=CC(=O)N1CCn2nc(-c3nc(-c4ccc5c(c4)CCNC5=O)c4ccsc4c3-c3c(F)cc(F)cc3OCCO)cc2[C@H]1C` [Compound 876, 6-((S)-6-((R)-5-acryloyl-4-methyl-4,5,6,7-tetrahydropyrazolo[1,5-a]pyrazin-2-yl)-7-(2,4-difluoro-6-(2-hydroxyethoxy)phenyl)thieno[3,2-c]pyridin-4-yl)-3,4-dihydroisoquinolin-1(2H)-one], the “% of modification” value in experiment [1] (setting [2]) was “A (percent of modification of PIK3CA protein ≥75%)”. Further, the IC50 in the experiment on pAKT in BT474 cells (setting [3]) was less than 100 nM.

Consider `C=CC(=O)N1CCn2nc(-c3nc(-c4ccc5c(c4)NC(=O)CN(C)C5)c4ccsc4c3-c3c(F)cc(F)cc3OCCOC)cc2[C@H]1C` [Compound 1132, 8-((S)-6-((R)-5-acryloyl-4-methyl-4,5,6,7-tetrahydropyrazolo[1,5-a]pyrazin-2-yl)-7-(2,4-difluoro-6-(2-methoxyethoxy)phenyl)thieno[3,2-c]pyridin-4-yl)-4-methyl-1,3,4,5-tetrahydro-2H-benzo[e][1,4]diazepin-2-one], for which, in experiment [1] (setting [2]), the “% of modification” value was “A (percent of modification of PIK3CA protein ≥75%)”. In the experiment on pAKT in BT474 cells (Compounds 1000-1279), the IC50 is less than 100 nM.

With `C=CC(=O)N1CCn2nc(-c3nc(-c4cnn(C)c4)c4ccsc4c3-c3c(F)cc(F)cc3OCCO)cc2[C@H]1C` [Compound 641], the “% of modification” value in experiment [1] (setting [4]) is reported as “C (25%≤percent of modification <50%)”. Also, the IC50 in the experiment on pAKT in BT474 cells (Compounds 10-999) was 100 to 1000 nM.

On to `C=C(F)C(=O)N1CCn2nc(-c3nc(-c4ccc5c(c4)CNC5=O)c4ccsc4c3-c3c(F)cc(F)cc3OCC)cc2C1` [Compound 321], for which, in experiment [1] (setting [4]), the “% of modification” value is reported as “B (50%<percent of modification <75%)”. Besides, in the experiment with pAKT in BT474 cells (Compounds 10-999), the IC50 was less than 100 nM.

For `C=CC(=O)N1CCc2nc(-c3nc(-c4ccc(N5CCNCC5)nc4)c4ccsc4c3-c3ccc(F)cc3OCCOC)sc2C1` [Compound 174], the “% of modification” value in experiment [1] (setting [4]) is “A (percent of modification of PIK3CA protein ≥75%)”. Moreover, in the experiment with pAKT in BT474 cells (Compounds 10-999), the IC50 is less than 100 nM.

Regarding `C=CC(=O)N1CCn2nc(-c3nc(-c4cn(C)cn4)c4ccsc4c3-c3c(F)cc(F)cc3OCCO)cc2C1C` (stereo not shown) [Compound 786], the “% of modification” value in experiment [1] (setting [4]) is “A (percent of modification of PIK3CA protein ≥75%)”. The 50% inhibitory concentration (IC50) with pAKT in BT474 cells (Compounds 10-999) was less than 100 nM.

Take `C=CC(=O)N1CC(n2cc(-c3nc(N4CCc5n[nH]c(=O)cc5C4)c4ccsc4c3-c3ccc(F)cc3OCCOC)cn2)C1` [Compound 158]: in experiment [1] (setting [4]), the “% of modification” value is given as “A (percent of modification of PIK3CA protein ≥75%)”. For the same compound, in the experiment on pAKT in BT474 cells (Compounds 10-999), the IC50 was in the range of 100 to 1000 nM.

`C=CC(=O)N1CCc2ncc(-c3nc(-c4ccc5nn(C)cc5c4)c4ccsc4c3-c3c(F)cc(F)cc3OCCOC)cc2C1` [Compound 400]: the “% of modification” value in experiment [1] (setting [4]) is “A (percent of modification of PIK3CA protein ≥75%)”. For the same compound, the half-maximal inhibitory concentration (IC50) with pAKT in BT474 cells (Compounds 10-999) is less than 100 nM.

On to `C=CC(=O)N1Cc2cc(-c3nc(-c4ccc5c(cnn5C)c4)c4ccsc4c3-c3c(F)cc(F)cc3OC[C@@H](C)O)nn2C[C@H]1C` [Compound 725], for which the “% of modification” value in experiment [1] (setting [4]) was “A (percent of modification of PIK3CA protein ≥75%)”. Further, the IC50 with pAKT in BT474 cells (Compounds 10-999) was less than 100 nM.

In the case of `C=CC(=O)N1CCn2nc(-c3nc(-c4ccc(CN(C)C)cc4)c4ccsc4c3-c3c(F)cc(F)cc3OCCOC)cc2C1C` (stereo not shown) [Compound 991], the “% of modification” value in experiment [1] (setting [2]) is listed as “A (percent of modification of PIK3CA protein ≥75%)”. Besides, the IC50 in the experiment on pAKT in BT474 cells (Compounds 10-999) was less than 100 nM.

Consider `C=CC(=O)N1CCn2nc(-c3nc(-c4ccc5nn(C)cc5c4)c4ccsc4c3-c3c(F)cc(F)cc3OCCOC)cc2[C@H]1C` [Compound 749], for which, in experiment [1] (setting [4]), the “% of modification” value is “A (percent of modification of PIK3CA protein ≥75%)”. The IC50 with pAKT in BT474 cells (Compounds 10-999) is less than 100 nM.

As to `C=CC(=O)N1CC(n2cc(-c3nc(-c4ccc(S(=O)(=O)NC)cc4)c4ccsc4c3-c3ccc(F)cc3OC)cn2)C1` [Compound 196], the “% of modification” value in experiment [1] (setting [4]) is recorded as “A (percent of modification of PIK3CA protein ≥75%)”. For the same compound, the 50% inhibitory concentration (IC50) with pAKT in BT474 cells (Compounds 10-999) lay in the range of 100 to 1000 nM.

For `C=CC(=O)N1CCc2nc(-c3nc(-c4cnn(C)c4)c4ccsc4c3-c3c(F)cc(Cl)cc3OCCOC)sc2C1` [Compound 464], in experiment [1] (setting [4]), the “% of modification” value was “A (percent of modification of PIK3CA protein ≥75%)”. The IC50 in the experiment with pAKT in BT474 cells (Compounds 10-999) lay within 100 to 1000 nM.

For the compound `C=CC(=O)N1CCc2ncc(-c3nc(-c4cnn(CC(F)F)c4)c4ccsc4c3-c3c(F)cc(F)cc3OC(C)C)cc2C1` [Compound 371], the “% of modification” value in experiment [1] (setting [4]) is reported as “A (percent of modification of PIK3CA protein ≥75%)”. The IC50 in the experiment with pAKT in BT474 cells (Compounds 10-999) is less than 100 nM.

Consider `C=CC(=O)N1CCc2ncc(-c3nc(-c4ccc5c(cnn5C)c4)c4sccc4c3-c3c(F)cc(F)cc3OCCOC)cc2C1` [Compound 1261, 1-[3-[4-[2,4-difluoro-6-(2-methoxyethoxy)phenyl]-7-(1-methylindazol-5-yl)thieno[2,3-c]pyridin-5-yl]-7,8-dihydro-5H-1,6-naphthyridin-6-yl]prop-2-en-1-one], for which, in experiment [1] (setting [2]), the “% of modification” value is given as “A (percent of modification of PIK3CA protein ≥75%)”. Further, the half-maximal inhibitory concentration (IC50) with pAKT in BT474 cells (Homo sapiens, BT-474, Compounds 1000-1279) is less than 100 nM.

As to `C=CC(=O)N1CCc2nc(-c3nc(-c4ccc5c(c4)CCN(C)C5)c4ccsc4c3-c3c(F)cc(F)cc3OC(C)C)sc2C1` [Compound 312], the “% of modification” value in experiment [1] (setting [4]) is on record as “A (percent of modification of PIK3CA protein ≥75%)”. Besides, the IC50 with pAKT in BT474 cells (Compounds 10-999) was less than 100 nM.

For `C=CC(=O)N1CCn2nc(-c3nc(-c4cnnc(C)c4)c4ccsc4c3-c3c(F)cc(F)cc3OCCOC)cc2C1C` (stereo not shown) [Compound 764], the “% of modification” value in experiment [1] (setting [4]) is “A (percent of modification of PIK3CA protein ≥75%)”. For the same compound, the half-maximal inhibitory concentration (IC50) in the experiment with pAKT in BT474 cells (Compounds 10-999) is less than 100 nM.

Turning to `C=CC(=O)N1CCc2nc(-c3nc(C4CCN(C(C)C)CC4)c4ccsc4c3-c3ccc(F)cc3OCCOC)sc2C1` [Compound 143, 1-(2-(7-(4-fluoro-2-(2-methoxyethoxy)phenyl)-4-(1-isopropylpiperidin-4-yl)thieno[3,2-c]pyridin-6-yl)-6,7-dihydrothiazolo[5,4-c]pyridin-5(4H)-yl)prop-2-en-1-one], the “% of modification” value in experiment [1] (setting [4]) was “A (percent of modification of PIK3CA protein ≥75%)”. Moreover, the half-maximal inhibitory concentration (IC50) with pAKT in BT474 cells (setting [3]) fell in the range of 100 to 1000 nM.

As to `C=CC(=O)N1CC(n2cc(-c3nc(N4CCC5(CC4)COC5)c4ccsc4c3-c3ccc(F)cc3OCCOC)cn2)C1` [Compound 122], the “% of modification” value in experiment [1] (setting [4]) was “A (percent of modification of PIK3CA protein ≥75%)”. Moreover, the IC50 with pAKT in BT474 cells (Compounds 10-999) lay within 100 to 1000 nM.

As for `C=CC(=O)N1CCn2nc(-c3nc(-c4ccc5cn(C)nc5c4)c4ccsc4c3-c3c(F)cc(F)cc3OC[C@@H](C)O)cc2[C@@H]1C` [Compound 770, 1-((S)-2-((S)-7-(2,4-difluoro-6-((R)-2-hydroxypropoxy)phenyl)-4-(2-methyl-2H-indazol-6-yl)thieno[3,2-c]pyridin-6-yl)-4-methyl-6,7-dihydropyrazolo[1,5-a]pyrazin-5(4H)-yl)prop-2-en-1-one], the “% of modification” value in experiment [1] (setting [4]) was “A (percent of modification of PIK3CA protein ≥75%)”. The IC50 in the experiment with pAKT in BT474 cells (Compounds 10-999) is less than 100 nM.

As to `C=CC(=O)N1CCc2cc(-c3nc(-c4cnc5c(c4)CNC(=O)C5)c4ccsc4c3-c3c(F)cc(F)cc3OC(C)C)nn2CC1` [Compound 568], the “% of modification” value in experiment [1] (setting [4]) is listed as “A (percent of modification of PIK3CA protein ≥75%)”. Also, the IC50 in the experiment with pAKT in BT474 cells (Compounds 10-999) is less than 100 nM.

On to `C=CC(=O)N1CCc2ncc(-c3nc(-c4cnn(C)c4)c4ccsc4c3-c3c(F)cc(F)cc3OC)cc2C1` [Compound 405], for which the “% of modification” value in experiment [1] (setting [4]) is recorded as “A (percent of modification of PIK3CA protein ≥75%)”. Moreover, the IC50 in the experiment with pAKT in BT474 cells (Compounds 10-999) was less than 100 nM.

As to `C=CC(=O)N1CCn2nc(-c3nc(-c4ccnc(N(C)C)c4)c4ccsc4c3-c3c(F)cc(F)cc3OCCO)cc2C1C` (stereo not shown) [Compound 959], in experiment [1] (setting [2]), the “% of modification” value is “A (percent of modification of PIK3CA protein ≥75%)”. Further, in the experiment on pAKT in BT474 cells (Compounds 10-999), the half-maximal inhibitory concentration (IC50) was less than 100 nM.
